Measurements as given in ChEMBL document CHEMBL1201862, “PubChem BioAssay data set” (2004).
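Exposure lasted 48 hours, with cells grown in 96-well plates and compounds tested at five concentrations. Here, GI50 denotes the concentration required for 50% inhibition of growth.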 Activity calls are given as the source filed them. No stated cut-off is given here; in the data, active = GI50 up to about 1.1 µM and inactive = higher.

Tests used:
Experiment in all cases: NCI anticancer screen, dose series, 48 h
SK-MEL-2 = system: SK-MEL-2
HOP-92 = system: HOP-92
SNB-19 = system: SNB-19
SW-620 = system: SW-620
HOP-62 = system: HOP-62
NCI-H23 = system: NCI-H23
NCI-H460 = system: NCI-H460
786-0 = system: 786-0
BT-549 = system: BT-549
M14 = system: M14
HCT-15 = system: HCT-15
SN12C = system: SN12C
CAKI-1 = system: CAKI-1
UO-31 = system: UO-31
IGROV-1 = system: IGROV-1
HT-29 = system: HT-29
CCRF-CEM = system: CCRF-CEM
SF-539 = system: SF-539
OVCAR-5 = system: OVCAR-5
NCI-H522 = system: NCI-H522
UACC-62 = system: UACC-62
OVCAR-8 = system: OVCAR-8
HCT-116 = system: HCT-116
SF-268 = system: SF-268
SF-295 = system: SF-295
KM12 = system: KM12
Malme-3M = system: Malme-3M
UACC-257 = system: UACC-257
Hs-578T = system: Hs-578T
T47D = system: T47D
MOLT-4 = system: MOLT-4
COLO 205 = system: COLO 205
DU-145 = system: DU-145
A549 = system: A549
MCF7 = system: MCF7
RPMI-8226 = system: RPMI-8226
ACHN = system: ACHN
EKVX = system: EKVX
SK-OV-3 = system: SK-OV-3
U-251 = system: U-251
NCI/ADR-RES = system: NCI/ADR-RES
TK-10 = system: TK-10
PC-3 = system: PC-3
SR = system: SR
K562 = system: K562
MDA-MB-435 = system: MDA-MB-435
MDA-MB-231 = system: MDA-MB-231
HL-60 = system: HL-60
MDA-N = system: MDA-N
OVCAR-3 = system: OVCAR-3
OVCAR-4 = system: OVCAR-4
LOX IMVI = system: LOX IMVI
NCI-H226 = system: NCI-H226
HCC 2998 = system: HCC 2998
SK-MEL-5 = system: SK-MEL-5
A498 = system: A498
SK-MEL-28 = system: SK-MEL-28

For `Nc1cc(CO)cc(Nc2nc3ccc(Cl)cc3c3[nH]c4ccccc4c23)c1`, the GI50 (SK-MEL-2) was 4.27 µM (inactive), the GI50 (HOP-92) was 2.43 µM (inactive) and the GI50 (SNB-19) was 4.32 µM (inactive). For the same compound, the GI50 (SW-620) was 4.44 µM (inactive), the GI50 (HOP-62) was 7.19 µM (inactive) and the GI50 (NCI-H23) was 6.28 µM (inactive). For the same compound, the GI50 (NCI-H460) was 2.2 µM (inactive), the GI50 (786-0) was 1.98 µM (inactive) and the GI50 (BT-549) was 10.9 µM (inactive). The GI50 (M14) was 4.98 µM (inactive), the GI50 (HCT-15) was 3.92 µM and the GI50 (SN12C) was 2.89 µM (inactive). For the same compound, the GI50 (CAKI-1) was 2.69 µM (inactive), the GI50 (UO-31) was 2.9 µM (inactive) and the GI50 (IGROV-1) was 1.54 µM (inactive). The GI50 (HT-29) was 3.64 µM (inactive), the GI50 (CCRF-CEM) was 4.79 µM (inactive) and the GI50 (SF-539) was 3.34 µM (inactive). For the same compound, the GI50 (OVCAR-5) was 3.85 µM (inactive), the GI50 (NCI-H522) was 2.79 µM (inactive) and the GI50 (UACC-62) was 1.85 µM (inactive). For the same compound, the GI50 (OVCAR-8) was 4.28 µM (inactive), the GI50 (HCT-116) was 3.34 µM (inactive) and the GI50 (SF-268) was 2.86 µM (inactive). The GI50 (SF-295) was 3.56 µM (inactive), the GI50 (KM12) was 4.98 µM (inactive) and the GI50 (Malme-3M) was 5.27 µM (inactive). For the same compound, the GI50 (UACC-257) was 10.7 µM (inactive), the GI50 (Hs-578T) was 5.43 µM (inactive) and the GI50 (T47D) was 3.74 µM (inactive). The GI50 (MOLT-4) was 4.2 µM (inactive), the GI50 (COLO 205) was 2.29 µM (inactive) and the GI50 (DU-145) was 3.65 µM (inactive). The GI50 (A549) was 3.2 µM (inactive), the GI50 (MCF7) was 0.67 µM (active) and the GI50 (RPMI-8226) was 2.96 µM (inactive). For the same compound, the GI50 (ACHN) was 3.17 µM (inactive), the GI50 (EKVX) was 1.52 µM (inactive) and the GI50 (SK-OV-3) was 3.24 µM (inactive). The GI50 (U-251) was 3.05 µM (inactive), the GI50 (NCI/ADR-RES) was 8.45 µM (inactive) and the GI50 (TK-10) was 6.05 µM (inactive). The GI50 (PC-3) was 4.92 µM (inactive), the GI50 (SR) was 2.16 µM (inactive) and the GI50 (K562) was 4.67 µM (inactive). The GI50 (MDA-MB-435) was 3.85 µM (inactive), the GI50 (MDA-MB-231) was 2.55 µM (inactive) and the GI50 (HL-60) was 21.7 µM (inactive). The GI50 (MDA-N) was 6.65 µM (inactive).
For `CC(/C=C/c1ccc([N+](=O)[O-])o1)=N/N1CC(CN2CCOCC2)OC1=O` (configuration not stated), the GI50 (SK-MEL-2) was 16.9 µM (inactive), the GI50 (HOP-92) was 13.6 µM (inactive) and the GI50 (SNB-19) was 48.1 µM (inactive). The GI50 (OVCAR-3) was 16.1 µM (inactive), the GI50 (SW-620) was 30.2 µM (inactive) and the GI50 (HOP-62) was 26.9 µM (inactive). For the same compound, the GI50 (NCI-H23) was 20.7 µM (inactive), the GI50 (NCI-H460) was 21.5 µM (inactive) and the GI50 (786-0) was 28.1 µM (inactive). The GI50 (BT-549) was 6.58 µM (inactive), the GI50 (M14) was 17.3 µM (inactive) and the GI50 (HCT-15) was 16.5 µM. The GI50 (SN12C) was 25.4 µM (inactive), the GI50 (CAKI-1) was 19.4 µM (inactive) and the GI50 (UO-31) was 21.3 µM (inactive). For the same compound, the GI50 (HT-29) was 31.4 µM (inactive), the GI50 (CCRF-CEM) was 0.771 µM (active) and the GI50 (OVCAR-4) was 14 µM (inactive). For the same compound, the GI50 (SF-539) was 22.9 µM (inactive), the GI50 (OVCAR-5) was 47.3 µM (inactive) and the GI50 (UACC-62) was 17.3 µM (inactive). The GI50 (OVCAR-8) was 16.5 µM (inactive), the GI50 (HCT-116) was 11.4 µM (inactive) and the GI50 (SF-268) was 17.7 µM (inactive). For the same compound, the GI50 (LOX IMVI) was 24.9 µM (inactive), the GI50 (SF-295) was 86.1 µM (inactive) and the GI50 (KM12) was 42.8 µM (inactive). For the same compound, the GI50 (Malme-3M) was 14.7 µM (inactive), the GI50 (UACC-257) was 17.5 µM (inactive) and the GI50 (NCI-H226) was 21.4 µM (inactive). For the same compound, the GI50 (Hs-578T) was 44.8 µM (inactive), the GI50 (T47D) was 16.5 µM (inactive) and the GI50 (MOLT-4) was 22.9 µM (inactive). The GI50 (COLO 205) was 16.3 µM (inactive), the GI50 (DU-145) was 19.9 µM (inactive) and the GI50 (A549) was 26.8 µM (inactive). For the same compound, the GI50 (HCC 2998) was 28.9 µM (inactive), the GI50 (MCF7) was 13.1 µM (inactive) and the GI50 (RPMI-8226) was 9.64 µM (inactive). The GI50 (SK-MEL-5) was 14.7 µM (inactive), the GI50 (ACHN) was 16.6 µM (inactive) and the GI50 (EKVX) was 30.9 µM (inactive). The GI50 (SK-OV-3) was 52.2 µM (inactive), the GI50 (U-251) was 28.5 µM (inactive) and the GI50 (A498) was 32.6 µM (inactive). The GI50 (NCI/ADR-RES) was 30.2 µM (inactive), the GI50 (TK-10) was 45.1 µM (inactive) and the GI50 (PC-3) was 14 µM (inactive). For the same compound, the GI50 (SR) was 15.6 µM (inactive), the GI50 (K562) was 16.9 µM (inactive) and the GI50 (MDA-MB-435) was 18.7 µM (inactive). The GI50 (MDA-MB-231) was 23.6 µM (inactive), the GI50 (HL-60) was 25.3 µM (inactive) and the GI50 (MDA-N) was 18.6 µM (inactive). The GI50 (SK-MEL-28) was 17.3 µM (inactive).
With `CC1(C)CC(=O)c2c(nc3ccc4ccccc4c3c2-c2ccc(NC(=O)CCCCCCCCC(=O)Nc3ccc(-c4c5c(nc6ccc7ccccc7c46)CC(C)(C)CC5=O)cc3)cc2)C1` the GI50 (SK-MEL-2) was > 100 µM (inactive), the GI50 (HOP-92) was > 100 µM (inactive) and the GI50 (SNB-19) was > 100 µM (inactive). The GI50 (OVCAR-3) was > 100 µM (inactive), the GI50 (SW-620) was > 100 µM (inactive) and the GI50 (HOP-62) was > 100 µM (inactive). For the same compound, the GI50 (NCI-H23) was > 100 µM (inactive), the GI50 (NCI-H460) was > 100 µM (inactive) and the GI50 (786-0) was > 100 µM (inactive). The GI50 (BT-549) was > 100 µM (inactive), the GI50 (M14) was > 100 µM (inactive) and the GI50 (HCT-15) was over 100 µM. For the same compound, the GI50 (SN12C) was > 100 µM (inactive), the GI50 (CAKI-1) was > 100 µM (inactive) and the GI50 (UO-31) was > 100 µM (inactive). The GI50 (IGROV-1) was > 100 µM (inactive), the GI50 (HT-29) was > 100 µM (inactive) and the GI50 (CCRF-CEM) was > 100 µM (inactive). For the same compound, the GI50 (SF-539) was > 100 µM (inactive), the GI50 (OVCAR-5) was > 100 µM (inactive) and the GI50 (UACC-62) was > 100 µM (inactive). The GI50 (OVCAR-8) was > 100 µM (inactive), the GI50 (HCT-116) was > 100 µM (inactive) and the GI50 (SF-268) was > 100 µM (inactive). The GI50 (LOX IMVI) was > 100 µM (inactive), the GI50 (SF-295) was > 100 µM (inactive) and the GI50 (KM12) was > 100 µM (inactive). For the same compound, the GI50 (UACC-257) was > 100 µM (inactive), the GI50 (NCI-H226) was > 100 µM (inactive) and the GI50 (Hs-578T) was > 100 µM (inactive). For the same compound, the GI50 (T47D) was > 100 µM (inactive), the GI50 (MOLT-4) was > 100 µM (inactive) and the GI50 (COLO 205) was > 100 µM (inactive). The GI50 (DU-145) was > 100 µM (inactive), the GI50 (A549) was > 100 µM (inactive) and the GI50 (MCF7) was > 100 µM (inactive). For the same compound, the GI50 (RPMI-8226) was > 100 µM (inactive), the GI50 (SK-MEL-5) was > 100 µM (inactive) and the GI50 (ACHN) was > 100 µM (inactive). The GI50 (EKVX) was > 100 µM (inactive), the GI50 (SK-OV-3) was > 100 µM (inactive) and the GI50 (U-251) was > 100 µM (inactive). For the same compound, the GI50 (A498) was > 100 µM (inactive), the GI50 (NCI/ADR-RES) was > 100 µM (inactive) and the GI50 (TK-10) was > 100 µM (inactive). For the same compound, the GI50 (PC-3) was > 100 µM (inactive), the GI50 (SR) was > 100 µM (inactive) and the GI50 (K562) was > 100 µM (inactive). The GI50 (MDA-MB-435) was > 100 µM (inactive), the GI50 (MDA-MB-231) was > 100 µM (inactive) and the GI50 (HL-60) was > 100 µM (inactive). The GI50 (MDA-N) was > 100 µM (inactive) and the GI50 (SK-MEL-28) was > 100 µM (inactive).
